Reference: US5288718A, “Method for decorporating radioactive isotope from living organism” (priority 1989, dated 1994)
Counter-ions that a name gives are not always drawn.

Experiments:
[1] = Whole-body retention of Sr-85 introduced into the peritoneal cavity, mice (FIG. 1); assay type: in vivo, Swiss mice; settings: equimolar concentration, isotope in peritoneal cavity
Excerpt: (§1) In order to test the effect of DMCRYP on enhancing the decorporation of radiostroncium and the rare earth metal radiocerium from the body, male and female Swiss mice and Wistar rats were selected. […] In the comparative tests, a known polyaminopolycarboxylic acid-type decorporant (decorporating agent), calcium-trisodium salt of DTPA (diethylenetriaminopentacetic acid) (Heyl and Co., Berlin) was used at equimolar concentration. The amount of residual isotopes in the animal organisms was determined by whole-body activity measurements in every 1 to 4 days and was expressed as per cent of activity introduced.

[2] = Whole-body retention of Sr-85 introduced into the peritoneal cavity, female Wistar rats (FIG. 2, Example 2); assay type: in vivo; settings: equimolar concentration
Excerpt: as §1

[3] = Whole-body retention of radiostroncium in skin or subcutaneous interstitial tissues (FIG. 3, Example 3); assay type: in vivo; settings: subcutaneous/skin isotope
Excerpt: as §1

[4] = Whole-body retention of cerium-144 introduced peritoneally (FIG. 6, Example 6); assay type: in vivo; settings: female Swiss mice
Excerpt: as §1
Treatments were repeated twice, on the Days 2 and 4.

[5] = Ca^2+ compared with Sr^2+; cited from earlier work
[6] = Hygroscopicity; assay type: physicochemical; settings: sodium salt versus lithium salt
[7] = with increasing atomic number (decreasing ionic size); cited from earlier work
[8] = Lethal dose determination, intravenous, mortality within 30 days; settings: in vivo, DMCRYP salt×NaBr (x=2.5-8) as prepared according to Example I
Procedure: Healing power of the composition has been evidenced by animal tests. In this way, the minimum and average lethal doses (LD0.1 and LD50, respectively) have been established.
For the determination of lethal doses, the active ingredient was administered intravenously at increasing concentrations to the animals. Minimum and average lethal doses were calculated from the mortality within 30 days. […] On every occasion, one tenth of this dose was introduced into each animal in this experiment.

[9] = Water solubility; assay type: physicochemical; settings: product of Example 1

O=C(O)CN(CCN(CC(=O)O)CC(=O)O)CCN(CC(=O)O)CC(=O)O [DTPA, diethylenetriaminopentacetic acid]
Removal of Sr isotope from the animal body [1]: ineffective | Retention values compared to control [2]: lower than those in the control but the difference was not statistically significant | Effect of treatment on whole-body retention [3]: ineffective | Whole-body retention of cerium-144 ([4]; Day 2, after first treatment, 100 μmole/kg i.v. 30 minutes after isotope, control 85.9): 72.8% | Effect of second and third treatments ([4]; 100 μmole/kg, Days 2 and 4): ineffective | Relative stability of Ca^2+ and Sr^2+ complexes [5]: considerably more stable with Ca^2+ than with Sr^2+

O=C(O)C(C(=O)O)N1CCOCCOCCN(C(C(=O)O)C(=O)O)CCOCCOCC1 [lithium salt]
Hygroscopicity [6]: hygroscopic

O=C(O)CN1CCOCCOCCN(CC(=O)O)CCOCCOCC1 [1,10-diaza-4,7,13,16-tetraoxacyclooctadecane-N,N'-diacetic acid]
Stability constants of rare earth metal complexes, trend [7]: decrease with the increasing atomic number | Relative stability of Ca^2+ and Sr^2+ complexes [5]: identical within the experimental error

O=C(O)C(C(=O)O)N1CCOCCOCCN(C(C(=O)O)C(=O)O)CCOCCOCC1 [DMCRYP, 1,4,10,13-tetraoxa-7,16-diazacyclooctadecane-N,N'-dimalonic acid tetrasodium salt]
LD50 at 720 h [8]: 1050 µmol/kg | Water solubility [9]: very soluble | Hygroscopicity ([6]; listed as sodium salt): not hygroscopic

O=C(O)CN(CCN(CC(=O)O)CC(=O)O)CC(=O)O [EDTA, ethylenediaminetetraacetic acid]
Relative stability of Ca^2+ and Sr^2+ complexes [5]: considerably more stable with Ca^2+ than with Sr^2+
